US10487078B2, “Compositions and methods of targeting mutant K-RAS” (NantBio, Inc., priority 2015, dated 2019)
pEC50, pIC50, pKd: −log10 of the molar value. Where two headings read alike, the source gives them in different places.

Assays:
K-ras G12D = K-ras G12D (Homo sapiens, UniProt P01116, G12D); experiment: G-LISA Ras activation assay, 293H cells transfected with G12D mutant; format: cell-based; conditions: 1 hour treatment; for IC50: Table 1, G-LISA, 293H transfected, read-out: IC50 (μM) G12D; for pIC50: Table 5, IC50, 293H transfected, read-out: G-LISA (G12D)
Procedure: (§1) 293H cells were seeded in 6-wells at 0.6×10^6 cells per well and transfected next day with 5 μg of Ras wild-type, or G12C, G12D or G12V mutant DNA plasmid vector using transfection reagent Lipofectamine 3000. Next day cells were treated with 3.125-50 μM of Ras compounds for 1 hour. Wild-type transfected cells were subsequently treated with 100 ng/ml EGF for 2 minutes. Cells were washed once in ice-cold PBS, lysed in complete lysis buffer on ice, and processed by G-LISA according to Cytoskeleton protocol.
(§2) In-cell selectivity of the compounds presented herein against a specific K-ras mutant form can also be tested as shown in the following exemplary experiment. 293H cells were seeded in 6-wells and transfected next day with 5 μg of Ras wild-type, or G12C, G12D or G12V mutant DNA plasmid vector. Next day cells were treated with 3.125-50 μM of Ras compounds for 1 hour. Wild-type transfected cells were subsequently treated with 100 ng/ml EGF for 2 minutes. Cells were washed once in ice-cold PBS, lysed in complete lysis buffer on ice, and processed by G-LISA according to Cytoskeleton protocol. FIG. 1 depicts exemplary results.
as §1, with “In still further experiments, the inventors tested selected compounds in a G-LISA assay to compare IC50 values for wild-type and various mutant K-Ras (G12D, G12V) using the following general protocol: 293H” for “293H”

K-ras wild-type (GTP) = K-ras wild-type (GTP) (Homo sapiens, UniProt P01116); experiment: SPR assay (surface plasmon resonance); format: binding; conditions: 25° C., 8% DMSO
Procedure: (§3) Selected compounds were also tested for selective binding to wild type and mutant forms of K-ras in the active and non-active state using surface plasmon resonance, and exemplary results are shown in Table 4.
(§4) The running buffer in all surface plasmon resonance experiments was 10 mM HEPES pH 7.4, 150 mM NaCl, 0.1% (v/v) Tween-20, 1 mM MgCl2, 8% DMSO. Experiments were carried out on the SensiQ Pioneer optical biosensor. The flow rate was set at 50 μL/min and the temperature was 25° C. kRAS protein was immobilized to the Nickel-NTA charged surface of the SensiQ HisCap chip (sensiqtech.com) giving a yield of 4000 RU. Small molecules were prepared in 100% DMSO and further diluted to 8% DMSO in running buffer. The small molecules were injected using the Taylor diffusion gradient injection mode (OneStep®, see e.g., Evaluation of Taylor dispersion injections: Determining kinetic/affinity interaction constants and diffusion coefficients in label-free biosensing, John G. Quinn, Analytical Biochemistry (2011)). Buffer blanks were injected for double referencing purposes. Data processing and model fitting were performed using Qdat.

K-ras G12D (GTP) = K-ras G12D (GTP) (Homo sapiens, UniProt P01116, G12D); experiment: SPR assay (surface plasmon resonance); format: binding; conditions: 25° C., 8% DMSO
Procedure: as §3, §4

K-ras G12V (GTP) = K-ras G12V (GTP) (Homo sapiens, UniProt P01116, G12V); experiment: SPR assay (surface plasmon resonance); format: binding; conditions: 25° C., 8% DMSO
Procedure: as §3, §4

K-Ras wild-type = K-Ras wild-type (Homo sapiens, UniProt P01116); experiment: G-LISA Ras activation assay, 293H cells transfected with Ras wild-type, EGF-stimulated; format: cell-based; conditions: 1 hour treatment, 100 ng/ml EGF; for pIC50: Table 5, IC50, 293H transfected, read-out: G-LISA (wild type); for IC50: Table 1, G-LISA, 293H transfected, read-out: IC50 (μM) Wild-type
Procedure: as §1, §2
as §1, with “In still further experiments, the inventors tested selected compounds in a G-LISA assay to compare IC50 values for wild-type and various mutant K-Ras (G12D, G12V) using the following general protocol: 293H” for “293H”

K-ras G12V = K-ras G12V (Homo sapiens, UniProt P01116, G12V); experiment: G-LISA Ras activation assay, 293H cells transfected with G12V mutant; format: cell-based; conditions: 1 hour treatment; for IC50: Table 1, G-LISA, 293H transfected, read-out: IC50 (μM) G12V
Procedure: as §1, §2
as §1, with “In still further experiments, the inventors tested selected compounds in a G-LISA assay to compare IC50 values for wild-type and various mutant K-Ras (G12D, G12V) using the following general protocol: 293H” for “293H”

[1] = test system: Erk phosphorylation in Panc1 (G12D) cells; experiment: In-Cell Western Erk phosphorylation; format: cell-based; conditions: EC50, one hour treatment; read-out: In-Cell Western Erk phosporylation Panc1 (G12D)
Procedure: (§5) In-cell phosphorylation assays for Erk and Akt were performed on various of the compounds and exemplary results are shown in Table 3 below using […] and Panc10.05 cell lines for G12D K-ras mutants.
(§6) Cells are seeded in complete medium into black sided, clear-bottom 384-well microplates at 3000 cells/[…]/well. Plates are returned to 37° C. CO2 incubator for 18 hr. Drug is made as 200× in DMSO and diluted into medium to 10×. To each well is added 4 ul 10× test article or controls, and plates are returned to the incubator. Final assay DMSO concentration is 0.5%. After one hour, cells are fixed in formaldehyde, rinsed & permeabilized with triton X-100, and blocked with BSA/Goat serum blocking solution. Primary phospho-Akt and phospho-ERK antibodies are added and plates are incubated overnight at 4° C. Plates are rinsed with Tween-20 wash buffer and secondary antibody (Goat anti-rabbit, Thermofisher) is added. After 2 hours, plates are rinsed in Tween-20 wash buffer, and then PBS. Plates are imaged on the Celigo (Nexcelom) and cellular fluorescence is quantitated. Full inhibition of phospho-Akt is achieved with 1 uM BEZ235 (Sellekchem), while full inhibition of phospho-ERK is achieved with 1 uM MEK Inhibitor II Calbiochem). EC50 values are calculated using Graphpad Prism.

[2] = test system: Erk phosphorylation in Panc10.05 (G12D) cells; experiment: In-Cell Western Erk phosphorylation; format: cell-based; conditions: EC50, one hour treatment; read-out: In-Cell Western Erk phosporylation Panc10.05 (G12D)
Procedure: as §5, §6

[3] = test system: Akt phosphorylation in Panc10.05 (G12D) cells; experiment: In-Cell Western Akt phosphorylation; format: cell-based; conditions: EC50, one hour treatment; read-out: In-Cell Western Akt phosporylation Panc10.05 (G12D)
Procedure: as §5, §6

[4] = test system: Akt phosphorylation in Panc1 (G12D) cells; experiment: In-Cell Western Akt phosphorylation; format: cell-based; conditions: EC50, one hour treatment; read-out: In-Cell Western Akt phosporylation Panc1 (G12D)
Procedure: as §5, §6

[5] = test system: Ishikawa (K-Ras wild-type) cells; experiment: 72 hr cell viability (CellTiterBlue); format: cell-based; conditions: GI50, 72 hr
Procedure: (§7) Viability assays were performed on exemplary compounds and Table 2 below lists exemplary results for selected compounds tested on wild type (Ishikawa) and various K-ras mutants (Panc1-G12D; Panc10.05-G12D; HCT116-G13D).
(§8) Cells are counted and seeded at 1000 cells/36 ul medium/well into 384-well microplates. Cells are returned to 37° C. CO2 incubator for 18 hr. Drug is made as 200× in DMSO and diluted into medium to 10×. To each well is added 4 ul 10× drug, and plates are returned to the incubator. Final assay DMSO concentration is 0.5%. After 72 hr, 8 ul CellTiterBlue (Promega) is added to each well. After 3 hr, fluorescence (Ex550/Em590) is determined on the Victor Plate Reader (Perkin Elmer). Assay range is determined by DMSO control (100% viability) and 100 uM tamoxifen (0% viability). GI50 values are calculated using Graphpad Prism.

Panc1 (G12D) cells = experiment: 72 hr cell viability (CellTiterBlue); format: cell-based; conditions: GI50, 72 hr
Procedure: as §7, §8

Panc10.05 (G12D) cells = experiment: 72 hr cell viability (CellTiterBlue); format: cell-based; conditions: GI50, 72 hr
Procedure: as §7, §8

HCT116 (G13D) cells = experiment: 72 hr cell viability (CellTiterBlue); format: cell-based; conditions: GI50, 72 hr
Procedure: as §7, §8

Cc1nc(C)c(C(=O)Nc2nc(-c3ccc4c(c3)CC(=O)N4)cs2)s1 [Compound 4639]
IC50 (K-ras G12D): > 25 µM
pIC50 (K-ras G12D): < 4.60
pKd (K-ras wild-type (GTP)): 5.19
SPR Assay Wild-type (GTP) Rmax (K-ras wild-type (GTP)): Rmax = 14.6 ± 0.1

Cc1nc(C)c(C(=O)Nc2nc(-c3ccc4c(c3)CCC(=O)O4)cs2)s1 [Compound 4664]
IC50 (K-ras G12D): > 25 µM
pIC50 (K-ras G12D): < 4.60
pKd (K-ras G12D (GTP)): 5.32
SPR Assay G12D (GTP) Rmax (K-ras G12D (GTP)): Rmax = 8.73
pKd (K-ras G12V (GTP)): 4.43
SPR Assay G12V (GTP) Rmax (K-ras G12V (GTP)): Rmax = 143 ± 1

O=C1CCc2cc(-c3csc(NC(=O)c4scnc4-c4ccccc4)n3)ccc2N1 [Compound 4800]
IC50 (K-ras G12D): > 25 µM
pIC50 (K-ras G12D): < 4.60
pKd (K-ras G12D (GTP)): 4.57
SPR Assay G12D (GTP) Rmax (K-ras G12D (GTP)): Rmax = 389 ± 1
pKd (K-ras G12V (GTP)): 4.82
SPR Assay G12V (GTP) Rmax (K-ras G12V (GTP)): Rmax = 57.1 ± 0.2

Cc1nc(C)c(C(=O)Nc2nc(-c3ccc4c(c3)CCC(=O)N4)cs2)[nH]1 [Compound 4805]
pIC50 (K-Ras wild-type): 5.15
IC50 (K-ras G12D): > 25 µM
pIC50 (K-ras G12D): 3.73
pKd (K-ras G12D (GTP)): 3.24
SPR Assay G12D (GTP) Rmax (K-ras G12D (GTP)): Rmax = 219 ± 5
pKd (K-ras G12V (GTP)): 4.92
SPR Assay G12V (GTP) Rmax (K-ras G12V (GTP)): Rmax = 100.3 ± 0.2

Cc1nc(C)c(C(=O)Nc2nc(-c3ccc4c(c3)CCC(=O)N4Cc3ccccc3)cs2)s1 [Compound 4888]
IC50 (K-ras G12V): 14.5 µM
pIC50 (K-ras G12V; Table 5, IC50, 293H transfected, read-out: G-LISA (G12V)): 4.84
pEC50 [1]: 5.40
pEC50 [2]: 5.70
IC50 (K-Ras wild-type): 11.3 µM
pIC50 (K-Ras wild-type): 4.95
IC50 (K-ras G12D): 6 µM
pIC50 (K-ras G12D): 5.22
pEC50 [3]: 5.52
pEC50 [4]: 5.30
pIC50 [5]: 5.30
pIC50 (Panc1 (G12D) cells): 5.05
pIC50 (Panc10.05 (G12D) cells): 5.40
pIC50 (HCT116 (G13D) cells): 5.15

CCc1nc(C)c(C(=O)Nc2nc(-c3ccc4c(c3)CCC(=O)N4)cs2)s1 [Compound 4891]
IC50 (K-ras G12V): 9.3 µM
pEC50 [1]: 5.70
pEC50 [2]: 5.70
IC50 (K-Ras wild-type): 11.5 µM
IC50 (K-ras G12D): 5 µM
pEC50 [3]: 5.52
pEC50 [4]: 5.15
pIC50 [5]: 4.92
pIC50 (Panc1 (G12D) cells): 4.96
pIC50 (Panc10.05 (G12D) cells): 5.40
pIC50 (HCT116 (G13D) cells): 4.89

Cc1nc(C2CCOC2)sc1C(=O)Nc1nc(-c2ccc3c(c2)CCC(=O)N3)cs1 (centres unmarked) [Compound 4892]
pEC50 [1]: 5.30
pEC50 [2]: 5.70
IC50 (K-ras G12D): 6.5 µM
pEC50 [3]: 5.22
pEC50 [4]: 4.92
pIC50 [5]: 4.85
pIC50 (Panc1 (G12D) cells): 4.77
pIC50 (Panc10.05 (G12D) cells): 5.22
pIC50 (HCT116 (G13D) cells): 4.85

Cc1nc(Cc2ccccn2)sc1C(=O)Nc1nc(-c2ccc3c(c2)CCC(=O)N3)cs1 [Compound 4893]
pEC50 [1]: < 4.60
pEC50 [2]: < 4.60
pEC50 [3]: < 4.60
pEC50 [4]: < 4.60
pIC50 [5]: ≤ 4.60
pIC50 (Panc1 (G12D) cells): ≤ 4.60
pIC50 (Panc10.05 (G12D) cells): ≤ 4.60
pIC50 (HCT116 (G13D) cells): ≤ 4.60

Cc1nc(-n2ccnc2)sc1C(=O)Nc1nc(-c2ccc3c(c2)CCC(=O)N3)cs1 [Compound 4894]
pEC50 [1]: < 4.60
pEC50 [2]: < 4.60
pEC50 [3]: < 4.60
pEC50 [4]: < 4.60
pIC50 [5]: ≤ 4.60
pIC50 (Panc1 (G12D) cells): ≤ 4.60
pIC50 (Panc10.05 (G12D) cells): ≤ 4.60
pIC50 (HCT116 (G13D) cells): ≤ 4.60

Cc1nc(N2CCOCC2)sc1C(=O)Nc1nc(-c2ccc3c(c2)CCC(=O)N3)cs1 [Compound 4895]
pEC50 [1]: < 4.60
pEC50 [2]: < 4.60
pEC50 [3]: < 4.60
pEC50 [4]: < 4.60
pIC50 [5]: ≤ 4.60
pIC50 (Panc1 (G12D) cells): ≤ 4.60
pIC50 (Panc10.05 (G12D) cells): ≤ 4.60
pIC50 (HCT116 (G13D) cells): ≤ 4.60

COCCOc1nc(C)c(C(=O)Nc2nc(-c3ccc4c(c3)CCC(=O)N4)cs2)s1 [Compound 4896]
pEC50 [1]: 5.10
pEC50 [2]: 5.10
pEC50 [3]: 4.92
pEC50 [4]: 4.85
pIC50 [5]: 4.72
pIC50 (Panc1 (G12D) cells): ≤ 4.60
pIC50 (Panc10.05 (G12D) cells): ≤ 4.60
pIC50 (HCT116 (G13D) cells): 4.66
